Each structure is given as a SMILES string. Where two headings read alike, the source gives them in different places.

The source of these data is patent US10065990B2, “Cyclic peptide compound, and preparation method, pharmaceutical composition and use thereof” (HANGZHOU GUANYU BIO-MEDICAL CO., LTD, priority 2013, dated 2018).

Holding throughout (test): HDAC biochemical activity measurement (fluorescent substrate deacetylation)
The target in one assay is HDAC1 (Homo sapiens, UniProt Q13547).
The next assay concerns the target T1, HDAC8 (Homo sapiens, UniProt Q9BY41).
T1 sequence (Q9BY41 1-377): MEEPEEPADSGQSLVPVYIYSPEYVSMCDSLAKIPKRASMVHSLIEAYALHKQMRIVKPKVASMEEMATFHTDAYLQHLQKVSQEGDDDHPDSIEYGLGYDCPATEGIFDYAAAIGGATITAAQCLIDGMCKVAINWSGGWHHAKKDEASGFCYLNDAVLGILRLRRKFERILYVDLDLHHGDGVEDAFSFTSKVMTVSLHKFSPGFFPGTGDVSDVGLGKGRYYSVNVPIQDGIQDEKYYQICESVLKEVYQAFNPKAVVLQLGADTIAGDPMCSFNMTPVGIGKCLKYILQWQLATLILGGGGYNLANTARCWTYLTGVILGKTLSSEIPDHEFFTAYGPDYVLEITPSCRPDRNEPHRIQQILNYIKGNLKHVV
To be noted: 37° C. 30 minutes.

The target in a further assay is T2, HDAC7 (Homo sapiens, UniProt Q8WUI4).
T2 sequence (Q8WUI4 1-952): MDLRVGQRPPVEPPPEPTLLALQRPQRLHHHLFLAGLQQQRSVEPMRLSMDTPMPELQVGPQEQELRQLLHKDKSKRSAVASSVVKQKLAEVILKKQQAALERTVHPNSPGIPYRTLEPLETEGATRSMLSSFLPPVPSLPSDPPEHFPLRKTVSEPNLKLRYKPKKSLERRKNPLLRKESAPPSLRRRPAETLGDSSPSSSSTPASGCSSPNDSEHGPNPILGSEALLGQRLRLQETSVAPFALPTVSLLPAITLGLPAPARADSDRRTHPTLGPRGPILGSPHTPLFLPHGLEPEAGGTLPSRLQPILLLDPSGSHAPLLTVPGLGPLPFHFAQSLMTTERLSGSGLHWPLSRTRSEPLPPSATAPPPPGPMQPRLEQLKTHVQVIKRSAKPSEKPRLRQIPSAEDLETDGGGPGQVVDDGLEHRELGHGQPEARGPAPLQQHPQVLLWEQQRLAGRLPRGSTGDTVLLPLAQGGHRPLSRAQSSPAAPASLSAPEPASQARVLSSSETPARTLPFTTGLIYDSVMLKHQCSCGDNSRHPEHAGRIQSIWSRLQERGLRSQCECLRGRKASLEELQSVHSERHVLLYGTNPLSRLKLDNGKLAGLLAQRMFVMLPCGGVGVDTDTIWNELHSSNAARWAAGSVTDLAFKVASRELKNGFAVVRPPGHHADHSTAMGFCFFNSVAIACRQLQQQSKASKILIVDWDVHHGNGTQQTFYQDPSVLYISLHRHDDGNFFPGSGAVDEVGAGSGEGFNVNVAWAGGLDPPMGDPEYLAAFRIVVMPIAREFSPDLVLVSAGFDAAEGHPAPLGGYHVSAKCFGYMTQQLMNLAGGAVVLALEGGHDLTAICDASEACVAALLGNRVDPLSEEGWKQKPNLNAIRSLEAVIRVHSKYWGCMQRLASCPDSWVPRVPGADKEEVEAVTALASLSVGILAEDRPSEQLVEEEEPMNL
To be noted: HDAC7; 37° C. 30 minutes.

The target in another assay is HDAC3 (Homo sapiens, UniProt O15379).
Chain of HDAC3 (O15379 whole entry, species assumed): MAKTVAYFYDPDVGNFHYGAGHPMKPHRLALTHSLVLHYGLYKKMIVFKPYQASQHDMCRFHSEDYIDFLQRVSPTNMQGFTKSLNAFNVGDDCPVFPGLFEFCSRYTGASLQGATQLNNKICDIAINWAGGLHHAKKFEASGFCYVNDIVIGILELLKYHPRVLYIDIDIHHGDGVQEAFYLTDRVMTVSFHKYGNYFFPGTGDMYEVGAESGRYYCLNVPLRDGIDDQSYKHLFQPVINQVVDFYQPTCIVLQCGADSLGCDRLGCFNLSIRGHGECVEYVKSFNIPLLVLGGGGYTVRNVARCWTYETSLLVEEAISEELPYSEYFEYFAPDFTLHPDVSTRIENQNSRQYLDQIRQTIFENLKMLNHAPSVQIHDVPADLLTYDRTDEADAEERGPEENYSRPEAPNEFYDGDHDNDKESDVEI
Chain of HDAC3 (Q9Y618 395-489 partner limits assumed, species assumed): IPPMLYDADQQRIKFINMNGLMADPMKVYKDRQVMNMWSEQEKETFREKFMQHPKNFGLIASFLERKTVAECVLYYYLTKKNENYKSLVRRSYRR
For a further assay, the target named is T3, HDAC11 (Homo sapiens, UniProt Q96DB2).
T3 sequence (Q96DB2 1-347): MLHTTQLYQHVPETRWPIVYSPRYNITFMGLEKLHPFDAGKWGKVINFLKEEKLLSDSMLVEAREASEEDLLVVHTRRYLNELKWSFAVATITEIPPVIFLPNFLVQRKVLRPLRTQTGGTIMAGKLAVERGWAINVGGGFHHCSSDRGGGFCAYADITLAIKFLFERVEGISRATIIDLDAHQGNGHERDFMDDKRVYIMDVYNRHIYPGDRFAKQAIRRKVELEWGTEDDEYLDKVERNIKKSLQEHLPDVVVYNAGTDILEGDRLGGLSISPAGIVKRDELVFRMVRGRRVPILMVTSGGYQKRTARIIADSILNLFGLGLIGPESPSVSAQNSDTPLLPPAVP

Setting [1] is: HDAC1, 37° C. 30 minutes, read-out: IC50 HDAC1.
The mark [2] stands for this setting: Table 2, read-out: IC50 HDAC1, a (compounds of the present invention).
Where [3] appears, read: read-out: IC50 HDAC3, HDAC3, 37° C. 30 minutes.
Setting [4] is: read-out: IC50 HDAC11, HDAC11, 37° C. 30 minutes.
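For IC50 HDAC1 in this document: fluorogenic acetyl-lysine substrate (20 µM) deacetylated by HDAC1, then developer releases fluorophore read at 360 nm excitation and 460 nm emission, inhibitor incubated 30 min at 37 °C.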
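For IC50 HDAC1, D (non-substituent) in this document: fluorogenic acetyl-lysine substrate (20 µM) deacetylated by HDAC1, then developer releases fluorophore read at 360 nm excitation and 460 nm emission, inhibitor incubated 30 min at 37 °C.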
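For IC50 HDAC1, a (compounds of the present invention) in this document: fluorogenic acetyl-lysine substrate (20 µM) deacetylated by HDAC1, then developer releases fluorophore read at 360 nm excitation and 460 nm emission, inhibitor incubated 30 min at 37 °C.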
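For IC50 HDAC7 in this document: fluorogenic deacetylation assay using acetyl-lysine substrate at 20 µM, enzyme and compound incubated 30 min at 37 °C, then developer added, fluorescence read at 360/460 nm.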

Chain of HDAC1 (Q13547 whole entry, species assumed): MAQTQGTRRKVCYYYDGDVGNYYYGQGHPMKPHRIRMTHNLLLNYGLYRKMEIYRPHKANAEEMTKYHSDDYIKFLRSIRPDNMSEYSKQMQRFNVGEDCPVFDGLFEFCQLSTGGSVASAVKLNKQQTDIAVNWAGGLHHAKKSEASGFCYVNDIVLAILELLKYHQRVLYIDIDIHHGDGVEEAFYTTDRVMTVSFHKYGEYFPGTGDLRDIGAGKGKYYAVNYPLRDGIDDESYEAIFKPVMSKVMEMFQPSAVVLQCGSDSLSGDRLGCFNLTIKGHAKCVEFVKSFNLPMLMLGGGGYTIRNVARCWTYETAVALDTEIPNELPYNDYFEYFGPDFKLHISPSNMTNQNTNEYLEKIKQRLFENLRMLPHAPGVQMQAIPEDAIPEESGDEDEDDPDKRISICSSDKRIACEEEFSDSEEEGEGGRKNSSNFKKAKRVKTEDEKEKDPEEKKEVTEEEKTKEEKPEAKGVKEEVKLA
Experimental for HDAC3: (§1) The chemical activity of the compound is determined according to the degree of deacetylation inhibition of the HDAC enzyme. This experiment measured the degree of deacetylation related to tumor proliferation and metastasis of HDAC1, HDAC2, HDAC3, HDAC8, HDAC11 five subtypes HDAC enzymes. After the substrate containing an acetylated lysine side chain and HDAC enzyme are labeled with a fluorescent label, the fluorescent substrate is de acetyl. The fluorescent labeled substrate is cleaved by the enzyme, and the fluorescent substance is released, which generates 460 nm emission light under the excitation of 360 nm light.
(§2) HDAC substrate was diluted with reaction buffer to 200M (reaction concentration of 20M), the HDAC enzyme was diluted to the appropriate concentration, then added different concentrations of the test compounds and acted at 37° C. 30 minutes, and then added the same volume of 2-times concentration substrate developing solution (developer), incubated at room temperature for 15 minutes.
Experimental for HDAC8: as §1, §2

By IC50 is commonly meant the concentration needed to halve the response being measured. For the compound `C/C=C1\NC(=O)c2ccc(F)c(n2)CNC(=O)C[C@@H](/C=C/CCSC(C)=O)OC(=O)[C@H](CCCCN)NC1=O` [Example 74], the IC50 on HDAC1 (setting [1]) stood at 273 nM; against HDAC8 it was 435 nM; against HDAC3, 231 nM; against HDAC11, 672 nM. Also, at HDAC7, the “IC50 HDAC7” value is “no activity”.

Turning to `C/C=C1\NC(=O)c2nccc(n2)CNC(=O)C[C@@H](/C=C/CCSC(C)=O)OC(=O)[C@H](C)NC1=O` [Example 24], the IC50 on HDAC1 (setting [1]) came out at 74 nM; against HDAC8, 63 nM; against HDAC3, 43 nM; against HDAC11, 97 nM. The “IC50 HDAC7” value against HDAC7 is given as “no activity”.

Take `C/C=C1\NC(=O)c2cccc(n2)CNC(=O)C[C@@H](/C=C/CCSC(C)=O)OC(=O)[C@H](C(C)C)NC1=O` [Compound 7]: the IC50 on HDAC1 (setting [1]) was 87 nM; at HDAC1 (setting [2]), less than 500 nM; at HDAC1 (Table 3, read-out: IC50 HDAC1, D (non-substituent)), 87 nM; at HDAC8 it was 39 nM; on HDAC3 (setting [3]) it was 7 nM; at HDAC11 (setting [4]), 11 nM. Further, on HDAC7, the “IC50 HDAC7” value is on record as “no activity”.

Consider `C/C=C1\NC(=O)c2cc(SC)cc(n2)CNC(=O)C[C@@H](/C=C/CCSC(C)=O)OC(=O)[C@H](CC)NC1=O` [Compound 178], for which the IC50 on HDAC1 (setting [1]) was determined as 91 nM; against HDAC8 it was 36 nM; at HDAC3, 35 nM; against HDAC11, 99 nM. For the same compound, the “IC50 HDAC7” value against HDAC7 was “no activity”.

On to `C/C=C1\NC(=O)c2cccc(n2)CNC(=O)C[C@@H](/C=C/CCSC(=O)CCCCCCC)OC(=O)[C@H](Cc2cccc3ccccc23)NC1=O` [Compound 239], for which the IC50 on HDAC1 (setting [1]) is 77 nM; on HDAC1 (setting [2]), less than 100 nM; on HDAC8, 89 nM; at HDAC3 (setting [3]) it was 47 nM; on HDAC11 (setting [4]), 28 nM. Further, on HDAC7, the “IC50 HDAC7” value is on record as “no activity”.
